Assay results published in patent publication US20030013660A1, “Dioxolane analogs for improved inter-cellular delivery” (Shire BioChem Inc., priority 2000, published 2003).
Read-outs that look alike come from different tables or passages of the source.

What was measured:
Test in all cases: 3H-TdR (3H-thymidine) incorporation assay at 72 hr
[1] = system: H-460; format: cell-based, Human
[2] = system: MCF-7; format: cell-based, Human
[3] = system: SF-268; format: cell-based, Human
[4] = system: CCRF-CEM; format: cell-based
Experimental: (§1) Table of IC50 Values (μM) for Controls
(§2) Exposition of 24 hr to drug, wash, incubated for another 48 hr (total of 72 hr assay)
(§3) (3H-Thymidine Incorporation Assay)

[5] = system: CEM/dCK-; format: cell-based; settings: for Factor* (Resistance Factor = Ratio of dCK- on Wild-type CCRF-CEM): ratio of IC50 CEM/dCK- to CCRF-CEM, 24 h
Experimental: as §1, §2, §3

[6] = Homo sapiens, NCI-H460, read-out: IC50 H-460 24 h, 24 h drug exposure, wash, another 48 hr, 3H-TdR incorporation at 72 hr
[7] = Homo sapiens, MCF7, read-out: IC50 MCF-7 24 h, 24 h drug exposure, wash, another 48 hr, 3H-TdR incorporation at 72 hr
[8] = Homo sapiens, SF-268, read-out: IC50 SF-268 24 h, 24 h drug exposure, wash, another 48 hr, 3H-TdR incorporation at 72 hr
[9] = Homo sapiens, CCRF-CEM, read-out: IC50 CCRF-CEM 24 h, 24 h drug exposure, wash, another 48 hr, 3H-TdR incorporation at 72 hr
[10] = Homo sapiens, CCRF-CEM, read-out: IC50 CEM/dCK- 24 h, 24 h drug exposure, wash, another 48 hr, deoxycytidine kinase-deficient CCRF-CEM
[11] = Homo sapiens, NCI-H460, read-out: IC50 H-460 24 h
[12] = Homo sapiens, MCF7, read-out: IC50 MCF-7 24 h
[13] = Homo sapiens, SF-268, read-out: IC50 SF-268 24 h
[14] = Homo sapiens, CCRF-CEM, read-out: IC50 CCRF-CEM 24 h
[15] = Homo sapiens, CCRF-CEM, read-out: IC50 CEM/dCK- 24 h

| IC50 [1, 6] | IC50 [2, 7] | IC50 [3, 8] | IC50 [4, 9] | IC50 [5, 10] | SMILES | Factor* (Resistance Factor = Ratio of dCK- on Wild-type CCRF-CEM) [5] | further results |
| --- | --- | --- | --- | --- | --- | --- | --- |
| 3100 nM | 2200 nM | 7900 nM | 1200 nM | > 100 µM | COC(=O)CCCC(=O)Nc1ccn([C@@H]2CO[C@H](CO)O2)c(=O)n1 [Compound 81, 4-[1-(2-HYDROXYMETHYL- [1,3]DIOXOLAN-4-YL)-2- OXO-1,2-DIHYDRO- PYRIMIDIN-4- YLCARBAMOYL]-BUTYRIC ACID METHYL ESTER] | 83 |  |
| 170 nM | 120 nM | 300 nM | 53 nM | > 100 µM | COC(=O)CCCC(=O)OC[C@H]1OC[C@@H](n2ccc(N)nc2=O)O1 [Compound 82, PENTANEDIOIC ACID 4-(4- AMINO-2-OXO-2#H!- PYRIMIDIN-1-YL)- [1,3]DIOXOLAN-2- YLMETHYL ESTER METHYL ESTER] | 1,887 |  |
| 140 nM | 190 nM | 610 nM | 88 nM | 82 µM | Cl.Nc1ccn([C@@H]2CO[C@H](COC(=O)Oc3ccc([N+](=O)[O-])cc3)O2)c(=O)n1 [Compound 88, 1-[2-(4-NITRO- PHENOXYCARBONYLOXYMETHY L)-[1,3]DIOXOLAN-4-YL]- 2-OXO-1,2-DIHYDRO- PYRIMIDIN-4-YL- AMMONIUM; CHLORIDE] | 931 |  |
| 330 nM | 410 nM | 2100 nM | 360 nM | 16 µM | O=C(Nc1ccn([C@@H]2CO[C@H](COC(=O)C34CC5CC(CC(C5)C3)C4)O2)c(=O)n1)OCc1ccccc1 [Compound 101, ADAMANTANE-1-CARBOXYLIC ACID 4-(4- BENZYLOXYCARBONYLAMINO- 2-OXO-2H-PYRIMIDIN-1- YL)-[1,3]DIOXOLAN-2- YLMETHYL ESTER] | 44 |  |
| 1800 nM | 27000 nM | 3800 nM | 3400 nM | > 100 µM | O=C(NCc1ccccc1)Nc1ccn([C@@H]2CO[C@H](CO)O2)c(=O)n1 [Compound 108, 1-BENZYL-3-[1-(2- HYDROXYMETHYL- [1,3]DIOXOLAN-4-YL)-2- OXO-1,2-DIHYDRO- PYRIMIDIN-4-YL]-UREA] | >29 |  |

The next lines start with the compound.

| SMILES | IC50 [1, 6] | IC50 [2, 7] | IC50 [3, 8] | IC50 [4, 9] | IC50 [5, 10] | Factor* (Resistance Factor = Ratio of dCK- on Wild-type CCRF-CEM) [5] | further results |
| --- | --- | --- | --- | --- | --- | --- | --- |
| Nc1ccn([C@@H]2CO[C@H](COC(=O)CCCCCNCc3ccccc3)O2)c(=O)n1 [Compound 84, 6-Benzylamino-hexanoic acid 4-(4-amino-2-oxo-2H-pyrimidin-1-yl)-[1,3]dioxolan-2-ylmethyl ester] |  |  |  |  |  | 5,000 | IC50 ([1]; read-out: IC50 H-460 24 h, 24 h drug exposure, wash, another 48 hr, 3H-TdR incorporation at 72 hr): 14 nM; IC50 ([2]; read-out: IC50 MCF-7 24 h, 24 h drug exposure, wash, another 48 hr, 3H-TdR incorporation at 72 hr): 9.4 nM; IC50 ([3]; read-out: IC50 SF-268 24 h, 24 h drug exposure, wash, another 48 hr, 3H-TdR incorporation at 72 hr): 360 nM; IC50 ([4]; read-out: IC50 CCRF-CEM 24 h, 24 h drug exposure, wash, another 48 hr, 3H-TdR incorporation at 72 hr): 12 nM |
| Nc1ccn([C@@H]2CO[C@H](CO[C@@H]3O[C@H](CO)[C@@H](O)[C@H]3O)O2)c(=O)n1.O=C(O)C(F)(F)F [Compound 85, 4-AMINO-1-[2-(3,4- DIHYDROXY-5- HYDROXYMETHYL- TETRAHYDROFURAN-2- YLOXYMETHYL)- [1,3]DIOXOLAN-4-YL]- 1HPYIMIDIN-2-ONE, TRIFLUOROACETIC ACID SALT] | 690 nM | 6800 nM | 16000 nM | 2600 nM | > 100 µM | 38 |  |
| CCCCC(C)C(=O)OC[C@H]1OC[C@@H](n2ccc(N)nc2=O)O1.Cl (stereo partly drawn) [Compound 86, (2S,4S)-2-(2″-METHYL- HEXANOICOXYMETHYL)-4- CYTOSIN-1′-YL-1,3- DIOXOLANE HYDROCHLORIDE] | 2 nM | 1.9 nM | 13 nM | 1.1 nM | 4 µM | 3,636 |  |
| O=C(O)C(F)(F)F.O=c1nc(NC/C=C/c2ccccc2)ccn1[C@@H]1CO[C@H](CO)O1 [Compound 89, 1-(2-HYDROXYMETHYL- [1,3]DIOXOLAN-4-YL)-4- (3-CINNAMYL)-1H- PYRIMIDIN-2-ONE TRIFLUORO-ACETATE SALT] | 3800 nM | 220 nM | 11000 nM | 2500 nM | > 100 µM | 40 |  |
| Nc1ccn([C@@H]2CO[C@H](COC/C=C/c3ccccc3)O2)c(=O)n1.O=C(O)C(F)(F)F [Compound 90, 4-AMINO-1-[2-(3- CINNAMYLOXYMETHYL)- [1,3]DIOXOLAN-4-YL]-1H- PYRIMIDIN-2-ONE TRIFLUOROACETATE SALT] | 95000 nM | 61000 nM | > 100000 nM | 65000 nM | > 100 µM | 1.5 |  |
| CC(OC[C@H]1OC[C@@H](n2ccc(N)nc2=O)O1)OC1CCCCC1 (stereo partly shown) [Compound 92, 4-AMINO-1-[2-(1- CYCLOHEXYLOXY- ETHOXYMETHYL)- [1,3]DIOXOLAN-4-YL]-1H- PYRIMIDIN-2-ONE] | 2100 nM | 1600 nM | 4200 nM | 1300 nM | > 100 µM | 77 |  |
| O=C(Nc1ccn([C@@H]2CO[C@H](COC(=O)C34CC5CC(CC(C5)C3)C4)O2)c(=O)n1)C12CC3CC(CC(C3)C1)C2 [Compound 102, ADAMANTANE-1-CARBOXYLIC ACID 4-{4-[(ADAMANTANE- 1-CARBONYL)-AMINO]-2- OXO-2H-PYRIMIDIN-1-YL}- [1,3]DIOXOLAN-2- YLMETHYL ESTER] | 190 nM | 1700 nM | 1000 nM | 410 nM | 11 µM | 27 |  |
| O=C(Nc1ccn([C@@H]2CO[C@H](COC(=O)Oc3ccc(Cl)cc3)O2)c(=O)n1)Oc1ccc(Cl)cc1 [Compound 103] |  |  |  |  |  | 4,545 | IC50 [1, 11]: 52 nM; IC50 [2, 12]: 18 nM; IC50 [3, 13]: 63 nM; IC50 [4, 14]: 11 nM; IC50 [5, 15]: 50 µM |
| O=C(Nc1ccn([C@@H]2CO[C@H](CO)O2)c(=O)n1)Oc1ccc(Cl)cc1.O=C(O)C(F)(F)F [Compound 104, [1-(2-HYDROXYMETHYL- [1,3]DIOXOLAN-4-YL)-2- OXO-1,2-DIHYDRO- […]-4-YL]- CARBAMIC ACID 4-CHLORO- PHENYL ESTER TRIFLUOROACETATE SALT] |  |  |  |  |  | >476 | IC50 [1, 11]: 270 nM; IC50 [2, 12]: 470 nM; IC50 [3, 13]: 470 nM; IC50 [4, 14]: 210 nM; IC50 [5, 15]: > 100 µM |
| Nc1ccn([C@@H]2CO[C@H](COC(=O)Oc3ccc(Cl)cc3)O2)c(=O)n1.O=C(O)C(F)(F)F [Compound 105, CARBONIC ACID 4-(4- AMINO-2-OXO-2H- PYRIMIDIN-1-YL)- [1,3]DIOXOLAN-2- YLMETHYL ESTER 4- CHLORO-PHENYL ESTER TRIFLUOROACETATE SALT] | 80 nM | 68 nM | 71 nM | 33 nM | 79 µM | 2393 |  |
| CC(C(=O)OC[C@H]1OC[C@@H](n2ccc(N)nc2=O)O1)c1ccccc1.Cl (stereo partly shown) [Compound 106, HYDROCHLORIDE] |  |  |  |  |  |  | IC50 ([1]; read-out: IC50 H-460 24 h, 24 h drug exposure, wash, another 48 hr, 3H-TdR incorporation at 72 hr, HYDROCHLORIDE): 14 nM; IC50 ([2]; read-out: IC50 MCF-7 24 h, 24 h drug exposure, wash, another 48 hr, 3H-TdR incorporation at 72 hr, HYDROCHLORIDE): 37 nM; IC50 ([3]; read-out: IC50 SF-268 24 h, 24 h drug exposure, wash, another 48 hr, 3H-TdR incorporation at 72 hr, HYDROCHLORIDE): 95 nM; IC50 ([4]; read-out: IC50 CCRF-CEM 24 h, 24 h drug exposure, wash, another 48 hr, 3H-TdR incorporation at 72 hr, HYDROCHLORIDE): 10 nM; IC50 ([5]; read-out: IC50 CEM/dCK- 24 h, 24 h drug exposure, wash, another 48 hr, deoxycytidine kinase-deficient CCRF-CEM, HYDROCHLORIDE): 46 µM |
| O=C(NCc1ccccc1)Nc1ccn([C@@H]2CO[C@H](COC(=O)NCc3ccccc3)O2)c(=O)n1 [Compound 109, BENZYL-CARBAMIC ACID 4- [4-(3-BENZYL-UREIDO)-2- OXO-2#H!-PYRIMIDIN-1- YL]-[1,3]DIOXOLAN-2- YLMETHYL ESTER] | 2600 nM | 31000 nM | 4800 nM | 1000 nM | > 100 µM | >100 |  |
